Measured values reported in patent publication US9469611B2, “Use of dihydroimidazolones for the treatment of dogs” (BOEHRINGER INGELHEIM VETMEDICA GMBH, priority 2002, dated 2016).
Where “and” joins values, the source holds several entries; their conditions need not be identical. Identical values can stand only once. Marks after values point to notes of the source that are not given here.

Assays:
[1] = test system: dogs with newly diagnosed idiopathic epilepsy; experiment: monotherapy in dogs with newly diagnosed idiopathic epilepsy (AWD 131-138 pilot study; retrospective phenobarbital, primidone); conditions: for duration of the ictus before treatment, median / duration of the ictus before treatment, time range / duration of the ictus during treatment, median / duration of the ictus during treatment, time range: grand mal seizures; for duration of the ictus before treatment, median / duration of the ictus before treatment, time range / Seizure frequency before treatment, all dogs / Seizure frequency before treatment, without nonresponders: baseline before monotherapy; for % reduction of seizures in responders: mean ± SEM; for Seizure frequency before treatment, all dogs / Seizure frequency before treatment, without nonresponders / Seizure frequency during treatment, all dogs / Seizure frequency during treatment, without nonresponders: median group value; for Seizure frequency during treatment, all dogs / Seizure frequency during treatment, without nonresponders: asterisk = P<0.05 vs before; for shortening of the postictal phase, mean: in the dogs with shortening; for dogs with unchanged or increased seizure severity: owners record
[2] = serum concentrations of phenobarbital and bromide
[3] = cited from earlier work
[4] = test system: dogs with chronic idiopathic epilepsy; experiment: add-on therapy in dogs with chronic idiopathic epilepsy not responding to phenobarbital or primidone; format: in vivo, dog
[5] = 44 newly diagnosed dogs, phenobarbital 4 to 13 mg/kg p.o. daily
[6] = eight chronic epilepsy dogs (potassium bromide add-on group), phenobarbital 6 to 17 mg/kg p.o. daily
[7] = eleven chronic epilepsy dogs (later AWD add-on), phenobarbital 6 to 23 mg/kg p.o. daily
[8] = potassium bromide 40-60 mg/kg p.o. daily, add-on
[9] = add-on to phenobarbital or primidone
[10] = grand mal seizures, add-on to phenobarbital or primidone
[11] = grand mal seizures, on phenobarbital or primidone before add-on
[12] = median, on phenobarbital/primidone before add-on

CCC1(c2ccccc2)C(=O)NC(=O)NC1=O [Phenobarbital, phenobarbital]
duration of the ictus before treatment, median [1]: 4.0 min | duration of the ictus before treatment, time range [1]: 0.5 to 10 min | duration of the ictus during treatment, median ([1]; monotherapy): 5.0 min | duration of the ictus during treatment, time range ([1]; monotherapy): 0.5 to 10 min | % reduction of seizures in responders ([1]; monotherapy): 72.4 ± 4.6% | Seizure frequency before treatment, all dogs [1]: 1.6 seizures/month | Seizure frequency before treatment, without nonresponders [1]: 1.68 seizures/month | Seizure frequency during treatment, all dogs ([1]; monotherapy): 0.59* seizures/month | Seizure frequency during treatment, without nonresponders ([1]; monotherapy): 0.42* seizures/month | dogs that died or were euthanized in status epilepticus ([1]; monotherapy): 10 | dogs with focal seizures instead of grand mal seizures during treatment ([1]; monotherapy): 6 | number of dogs with decreased duration of the ictus ([1]; monotherapy): 4 | number of dogs with shortened postictal phase ([1]; monotherapy): 8 | owners reporting subjectively a decrease of seizure severity ([1]; monotherapy): 24 | postictal phase during treatment, mean ([1]; monotherapy): 3 h | shortening of the postictal phase, mean ([1]; monotherapy): 43% | dogs with unchanged or increased seizure severity ([1]; monotherapy): 11 | serum concentration of phenobarbital, mean [2, 5]: 18400 ng/mL | serum concentration of phenobarbital, median [2, 5]: 17200 ng/mL | serum concentration, mean [2, 6]: 27200 ng/mL | serum concentration, median [2, 6]: 24600 ng/mL | serum concentration of phenobarbital, mean [2, 7]: 32000 ng/mL | serum concentration of phenobarbital, median [2, 7]: 26500 ng/mL | phenobarbital serum concentration, reference values ([3]; established by FARNBACH 1984): 45 µg/mL

[Br-].[K+] [Potassium bromide, potassium bromide, reference compound]
Bromide concentration, mean [2, 8]: 1.0 mg/mL | Bromide concentration, median [2, 8]: 0.9 mg/mL | bromide concentration, therapeutic range ([3]; established by PODELL and FENNER 1993): 1.0 to 2.0 mg/mL | comparison of antiepileptic efficacy between the two add on treatment schedules ([4]; Fisher's exact test): did not indicate any significant difference | dogs in which clusters did not occur anymore ([4]; add-on): 6 | dogs with worsening of seizure severity reported by owner ([4]; add-on): one | number of dogs with decreased duration of the ictus ([4]; add-on): 3 | number of dogs with shortened postictal phase ([4]; add-on): two | postictal phase during treatment, mean ([4]; add-on): 5.5 h | dogs in which a seizure reduction was observed [4, 9]: 7 of 12 | dogs that died or were euthanized in status epilepticus [4, 9]: 6 | Number of seizure-free dogs ([4]; add-on to phenobarbital/primidone): 0/12 | shortening of the postictal phase ([4]; add-on, in the dogs with shortening): 50% and 75% | duration of the ictus during treatment, median [4, 10]: 2.0 min | duration of the ictus during treatment, time range [4, 10]: 1 to 10 min | duration of the ictus before treatment, median [4, 11]: 3.0 min | duration of the ictus before treatment, time range [4, 11]: 1 to 13 min | % reduction of seizures in responders ([4]; mean ± SEM, add-on to phenobarbital/primidone): 59.7 ± 5.9% | Seizure frequency during treatment, all dogs ([4]; median, add-on to phenobarbital/primidone): 1.9 seizures/month | Seizure frequency during treatment, without nonresponders ([4]; median, add-on to phenobarbital/primidone, asterisk = P<0.05): 0.8* seizures/month | Seizure frequency before treatment, all dogs [4, 12]: 3.0 seizures/month | Seizure frequency before treatment, without nonresponders [4, 12]: 3.0 seizures/month

CCC1(c2ccccc2)C(=O)NCNC1=O [Primidone, primidone]
comparison of antiepileptic efficacy between monotherapy treatment groups ([1]; ANOVA): did not indicate any significant differences | duration of the ictus before treatment, median [1]: 1.5 min | duration of the ictus before treatment, time range [1]: 0.5 to 10 min | duration of the ictus during treatment, median ([1]; monotherapy): 1.0 min | duration of the ictus during treatment, time range ([1]; monotherapy): 0.5 to 10 min | % reduction of seizures in responders ([1]; monotherapy): 75.1 ± 5.1% | Seizure frequency before treatment, all dogs [1]: 1.75 seizures/month | Seizure frequency before treatment, without nonresponders [1]: 2.0 seizures/month | Seizure frequency during treatment, all dogs ([1]; monotherapy): 0.39 seizures/month | Seizure frequency during treatment, without nonresponders ([1]; monotherapy): 0.29* seizures/month | dogs in which a seizure reduction was observed ([1]; monotherapy): 19 of 26 | dogs that died or were euthanized in status epilepticus ([1]; monotherapy): 10 | dogs with focal seizures instead of grand mal seizures during treatment ([1]; monotherapy): 2 | dogs with reduced seizure number per cluster ([1]; monotherapy): 5 out of ten | number of dogs with decreased duration of the ictus ([1]; monotherapy): 2 | number of dogs with shortened postictal phase ([1]; monotherapy): 5 | owners reporting subjectively a decrease of seizure severity ([1]; monotherapy): ten of 22 | postictal phase during treatment, mean ([1]; monotherapy): 4.5 h | reduction of seizure number per cluster, mean ([1]; monotherapy): 37.5% | decrease of the duration of the ictus ([1]; monotherapy, in the dogs with a decrease): 30% | shortening of the postictal phase, mean ([1]; monotherapy): 40% | dogs with unchanged or increased seizure severity ([1]; monotherapy): 2
